Test results: paper PMC12087874, “Biaryl Phosphates and Phosphonates as Selective Inhibitors of the Transcription Factor STAT4” (Angewandte Chemie (International Ed. in English), 2025)

Molecular target: T1, STAT6 (Homo sapiens, UniProt P42226)
T1 sequence (P42226 1-847): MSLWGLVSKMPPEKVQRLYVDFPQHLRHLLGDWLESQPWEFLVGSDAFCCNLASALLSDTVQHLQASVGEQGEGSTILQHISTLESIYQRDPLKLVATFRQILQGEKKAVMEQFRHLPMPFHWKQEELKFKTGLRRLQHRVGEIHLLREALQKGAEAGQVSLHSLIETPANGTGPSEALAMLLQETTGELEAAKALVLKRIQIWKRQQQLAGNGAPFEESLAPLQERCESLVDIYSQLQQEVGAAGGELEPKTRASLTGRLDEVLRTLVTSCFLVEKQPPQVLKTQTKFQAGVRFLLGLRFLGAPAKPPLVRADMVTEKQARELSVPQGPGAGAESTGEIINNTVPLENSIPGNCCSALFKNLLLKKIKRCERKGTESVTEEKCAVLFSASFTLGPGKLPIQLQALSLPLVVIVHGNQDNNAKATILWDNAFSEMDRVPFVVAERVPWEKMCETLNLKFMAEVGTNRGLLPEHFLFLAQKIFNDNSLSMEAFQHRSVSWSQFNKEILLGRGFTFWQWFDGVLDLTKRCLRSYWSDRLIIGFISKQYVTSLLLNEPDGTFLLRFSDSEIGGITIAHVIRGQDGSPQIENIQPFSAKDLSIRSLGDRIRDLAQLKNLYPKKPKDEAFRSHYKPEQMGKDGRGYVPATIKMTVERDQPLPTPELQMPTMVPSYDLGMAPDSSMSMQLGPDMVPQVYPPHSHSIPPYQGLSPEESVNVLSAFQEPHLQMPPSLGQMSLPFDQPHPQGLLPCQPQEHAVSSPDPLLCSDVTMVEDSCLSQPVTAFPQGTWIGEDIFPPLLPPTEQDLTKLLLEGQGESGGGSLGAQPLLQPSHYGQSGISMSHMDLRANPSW
Experiment: Competitive fluorescence polarization (FP) assay, STAT6 SH2 domain
Type: binding
Details: for Ki: Ki derived from IC50; for IC50: mean ± SD, n = 3
Procedure: Fluorescence polarization assays
Competitive fluorescence polarization assays, which measure the abilities of test compounds (dissolved in DMSO) to displace a fluorescent-labeled peptide from the SH2 domain of a STAT protein, were carried out essentially as described. Proteins were used at the following final concentrations: 23 nM or 28 nM for STAT4; between 56 nM and 91 nM for STAT1; 107 nM or 110 nM for STAT3; between 131 nM and 177 nM for STAT5a; between 62 nM and 85 nM for STAT5b; and 101 nM or 106 nM for STAT6. These concentrations represent the approximate […]
dissociation constant for peptide binding of the respective protein batches used in the assays.
The following peptides were used: 5-carboxyfluorescein-GpYLPQNID-OH for STAT4; 5-carboxyfluorescein-GpYDKPHVL for STAT1; 5-carboxyfluorescein-GpYLPQTV-NH2 for STAT3; 5-carboxyfluorescein-GpYLVLDKW for STAT5a/b, and 5-carboxyfluorescein- […]
Gp[…]-OH for STAT6. All peptides were used at a final concentration of 10 nM. The buffer consisted of 10 mM Tris (pH 8.0), 50 mM NaCl, 1 mM EDTA, 1 mM DTT, 0 .1 % Nonidet P-40 substitute, and 2 % DMSO. After incubation of protein and test compound for 1 h at room temperature, the fluorescent -labeled peptide was added. Samples were transferred to 384 - well microtiter plates and fluorescence polarization was read after an additional 60 min of incubation time. Measurements were performed in triplicate. Percent binding was calculated based on a logarithmic curve fit using OriginPro 8G software. IC 50 values were converted to Ki-values via the published equation[3] using the corresponding Excel spread sheet […]
https://websites.umich.edu/~shaomengwanglab/software/calc_ki/index.html .
Error bars represent standard deviations. Ligand efficiencies (LE) were calculated by the formula LE = -1,37 x log Ki / number of non-hydrogen atoms.[4] […]

Compound | Ki [µM] | IC50 [µM]
O=P(O)(O)Oc1ccc(-c2ccccc2)cc1 [Compound 1, para‐biphenyl phosphate] | 7.3 ± 0.4 | 15 ± 1
O=P(O)(O)Oc1ccc(-c2ccc3ccccc3c2)cc1 [Compound 6g] | 9.3 ± 1.1 | 19 ± 2
O=P(O)(O)Oc1ccc(-c2ccccc2)cc1F [Compound 6h] | 46 ± 3 | 90 ± 7
O=P(O)(O)Oc1ccc(-c2ccc3ccccc3c2)cc1F [Compound 6m] | 29 ± 2 | 57 ± 4
O=P(O)(O)C(F)(F)c1ccc(-c2ccc3ccccc3c2)cc1F [Compound 8a] | 15 ± 2 | 30 ± 3
Cc1cc(-c2ccc(C(F)(F)P(=O)(O)O)c(F)c2)cs1 [Compound 8k] | 13 ± 1 | 26 ± 2
